Columns and labels:
[1] = tested on: cancer cell proliferation; experiment: Cancer cell proliferation, CDA targeting combined with metabolic inhibitor (FIG. 7); format: cell-based; conditions: in combination with CDA targeting
Source text: This finding opens several other combinatory therapeutic options as glutaminase (CB-839, FIG. 7) and α-KG dehydrogenase (CPI-613, a lipoate analog, inhibits mitochondrial enzymes pyruvate dehydrogenase (PDH) and α-KG dehydrogenase in NCI-H460 cell line, disrupts tumor cell mitochondrial metabolism) inhibitors are being evaluated clinically for PDA subjects^53.

[2] = tested on: pancreatic cancer cells; experiment: Sensitization of pancreatic cancer cells to gemcitabine by pharmacological inhibition of CDA (FIG. 6A); format: cell-based, human; conditions: in vitro, CDA inhibitor combined with gemcitabine
[3] = tested on: pancreatic cancer cells; experiment: Cell proliferation under pharmacological inhibition of CDA, without chemotherapy (FIG. 6B); format: cell-based, human; conditions: CDA inhibitor alone
[4] = tested on: pancreatic cancer cells; experiment: Tumor metabolism (NAD+/NADH ratio) under pharmacological inhibition of CDA (FIG. 6C); format: cell-based, human; conditions: CDA inhibitor alone, FIG. 6C (NAD+/NADH ratio)
Source text: Accordingly, we measure the glycolytic flux in CDA-deficient cells and the expression of key proteins involved in glycolysis in response to CDA targeting.

[5] = tested on: PDA; conditions: in combination with gemcitabine, compared with gemcitabine alone, reference 6; cited from earlier work
[6] = tested on: gemcitabine-resistant cells; conditions: reference 13; cited from earlier work

With `O=CC[C@@H](O)[C@H](O)[C@H](O)CO` [2-deoxy Glucose] the cancer cell proliferation [1] was “strongly inhibits cancer cell proliferation”.

For `O=C(Cc1cccc(OC(F)(F)F)c1)Nc1ccc(CCCCc2nnc(NC(=O)Cc3ccccn3)s2)nn1` [CB839], the cancer cell proliferation [1] was “strongly inhibits cancer cell proliferation”.

For `O=C1NCC=CCN1[C@@H]1O[C@H](CO)[C@@H](O)[C@H]1O` [DR, 1,3-diazepinone riboside], the sensitization to gemcitabine [2] was “sensitizes pancreatic cancer cells to gemcitabine”, the cell proliferation [3] was “fails to alter cell proliferation” and the tumor metabolism [4] was “fails to alter”.

For `C#Cc1cccc(Nc2ncnc3cc(OCCOC)c(OCCOC)cc23)c1` [Erlotinib], the overall survival time [5] is given as “only slightly increases overall survival time”.

For `O=C1NC(O)CCN1[C@@H]1O[C@H](CO)[C@@H](O)[C@H]1O` (stereo partly shown) [THU, Tetrahydrouridine], the sensitivity to gemcitabine [6] is given as “increases the sensitivity to gemcitabine”.

Reference: patent US20190076464A1, “CYTIDINE DEAMINASE INHIBITORS FOR THE TREATMENT OF PANCREATIC CANCER” (INSERM (OMSTOTIT NATIONAL DE LA SANTÉ ET DE LA RECHERCHE …, priority 2016, published 2019)
